Test results reported in patent US10975035B2, “Bicyclic compounds” (Recurium IP Holdings, LLC, priority 2014, dated 2021).
Counter-ions that a name gives are not always drawn.

Test system: male ICR mice
Experiment: Formalin paw test
Type: in vivo, mouse
Conditions: for Early Phase: early/acute phase (0-10 minutes) after formalin; for Late Phase: late/tonic phase (10-35 minutes) after formalin
Method: One test compound or the vehicle was administered to each mouse in each test group (8 mice per group). Non-fasted male ICR mice weighing 23±3 g were used. Test compounds were administered at a concentration of 3 mg/kg, 10 mg/kg, 15 mg/kg, 30 mg/kg, 60 mg/kg, 100 mg/kg, 200 mg/kg or 300 mg/kg; morphine was administered at a concentration of 5 mg/kg; and acetaminophen was administered at a concentration of 200 mg/kg. The control group received the vehicle (5% DMSO/40% PEG400/20% HPbCD/Saline). After 30 or 60 minutes, a 2% formalin solution (0.02 mL) was injected into one hind paw (sub-plantar) of each mouse. Responses were measured every 5 minutes after the formalin injection for 35 minutes.
The results in Table A are for oral administration; the results in Table B are for intraperitoneal administration. In Tables A and B, ‘A’ designates <70 licks/sec, ‘B’ designates ≥70 licks/sec and <165 licks/sec, and ‘C’ designates ≥165 licks/sec.

[1] = intraperitoneal administration, 30 mg/kg

## CC(=O)NCC12CC(C(C)(C)C)(C1)C2 [Compound 1, N-((3-(tert-butyl)bicyclo[1.1.1]pentan-1-yl)methyl)acetamide]
Oral administration, 200 mg/kg
  Early Phase: A (‘A’ designates <70 licks/sec)
  Late Phase: A (‘A’ designates <70 licks/sec)

## CC(C)(C)C12CC(CN)(C1)C2 [Compound 1c, (3-(tert-butyl)bicyclo[1.1.1]pentan-1-yl)methanamine]
[1]
  Early Phase: B (‘B’ designates ≥70 licks/sec and <165 licks/sec)
  Late Phase: B (‘B’ designates ≥70 licks/sec and <165 licks/sec)

## CC(=O)NCC12CC(C(F)(F)F)(C1)C2 [Compound 2]
Oral administration, 200 mg/kg
  Early Phase: B (‘B’ designates ≥70 licks/sec and <165 licks/sec)
  Late Phase: B (‘B’ designates ≥70 licks/sec and <165 licks/sec)

## CC(=O)NC12CC(C(F)(F)F)(C1)C2 [Compound 4]
Oral administration, 200 mg/kg
  Early Phase: A (‘A’ designates <70 licks/sec)
  Late Phase: C (‘C’ designates ≥165 licks/sec)

## CC(=O)NC12CC(C)(C1)C2 [Compound 6]
Oral administration, 200 mg/kg
  Early Phase: B (‘B’ designates ≥70 licks/sec and <165 licks/sec)
  Late Phase: B (‘B’ designates ≥70 licks/sec and <165 licks/sec)

## CC(=O)NC12CC(C(C)C)(C1)C2 [Compound 8]
Oral administration, 200 mg/kg
  Early Phase: A (‘A’ designates <70 licks/sec)
  Late Phase: A (‘A’ designates <70 licks/sec)

## O=C(NC12CC(C1)C2)C(F)(F)F [Compound 9]
Oral administration, 200 mg/kg
  Early Phase: B (‘B’ designates ≥70 licks/sec and <165 licks/sec)
  Late Phase: C (‘C’ designates ≥165 licks/sec)

## CC(C)(C)C(=O)NC12CC(C(C)(C)C)(C1)C2 [Compound 11]
Oral administration, 200 mg/kg
  Early Phase: A (‘A’ designates <70 licks/sec)
  Late Phase: A (‘A’ designates <70 licks/sec)

## CC(C)(C)C(=O)NC12CC(C1)C2 [Compound 12]
Oral administration, 200 mg/kg
  Early Phase: B (‘B’ designates ≥70 licks/sec and <165 licks/sec)
  Late Phase: C (‘C’ designates ≥165 licks/sec)

## CC(=O)N(C)C12CC(C(C)(C)C)(C1)C2 [Compound 14]
Oral administration, 200 mg/kg
  Early Phase: A (‘A’ designates <70 licks/sec)
  Late Phase: A (‘A’ designates <70 licks/sec)

## CC(=O)NC12CC(C(C)(C)O)(C1)C2 [Compound 18]
[1]
  Early Phase: B (‘B’ designates ≥70 licks/sec and <165 licks/sec)
  Late Phase: C (‘C’ designates ≥165 licks/sec)

## NCCC12CC(C(F)(F)F)(C1)C2 [Compound 21, 2-(3-(trifluoromethyl)bicyclo[1.1.1]pentan-1-yl)ethanamine, hydrochloride]
[1]
  Early Phase: B (‘B’ designates ≥70 licks/sec and <165 licks/sec)
  Late Phase: B (‘B’ designates ≥70 licks/sec and <165 licks/sec)
